Source: PMC7083800, “Production and characterization of Aspergillus niger GH29 family α-fucosidase and production of a novel non-reducing 1-fucosyllactose” (Glycoconjugate Journal, 2019)

Tested on: T1, A. niger GH29 α-fucosidase (long version, pPFucA-L)
T1 construct: gene FucA; C-terminal His-tag kept; codon-optimized, secreted from Pichia pastoris
Assay: pNP release, absorbance at […] nm
Assay type: biochemical, Aspergillus niger
Conditions: 50 mM Na-acetate buffer assay, pH 3.6, 45 °C; 0.05-3 mM substrate; read-out: apparent Km

- Km: 390 µM
Compound: C[C@@H]1O[C@@H](Oc2ccc([N+](=O)[O-])cc2)[C@@H](O)[C@H](O)[C@@H]1O [pNP-fucose, 4-Nitrophenyl α-L-fucopyranoside]
